# Measurements: patent EP3074389B1, “QUINOLINE DERIVATIVES AS BROMODOMAIN INHIBITORS” (Gilead Sciences, Inc., priority 2013, dated 2015)
# What was measured:
# BRD4 domain 1 = BRD4 domain 1 (Homo sapiens, UniProt O60885); experiment: Kd determination of inhibitors binding to BRD4 domain 1 (Epic label-free platform); conditions: direct binding to immobilized BRD4 domain 1; tripling dilution series from 20µM; about 1hr equilibrium; rounded to whole number; read-out: Epic Kd BRD41
# Method in brief: (§1)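 Label-free resonant waveguide (Epic) direct binding to BRD4 domain 1 or domain 2 amine-coupled via EDC/Sulfo-NHS at 150 µg/mL in 20 mM HEPES pH 7. Binding response taken as wavelength shift (pm) between baseline and second read; Kd from fit to a single-site binding isotherm.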
# BRD4 domain 2 = BRD4 domain 2 (Homo sapiens, UniProt O60885); experiment: Kd determination of inhibitors binding to BRD4 domain 2 (Epic label-free platform); conditions: direct binding to immobilized BRD4 domain 2; tripling dilution series from 20µM; about 1hr equilibrium; rounded to whole number
# Method in brief: as §1
SMILES,Kd (BRD4 domain 1) [nM],Kd (BRD4 domain 2) [nM]
"Cc1noc(C)c1-c1cc(S(=O)(=O)NC2CCCC2)c2cc(NCCCN(C)C)c(=O)[nH]c2c1 [Compound 95, N-cyclopentyl-3-((3-(dimethylamino)propyl)amino)-7-(3,5-dimethylisoxazol-4-yl)-2-oxo-1,2-dihydroquinoline-5-sulfonamide]",798,503
"Cc1noc(C)c1-c1cc(S(=O)(=O)NCC2CC2)c2cccnc2c1 [Compound 15, N-(cyclopropylmethyl)-7-(3,5-dimethylisoxazol-4-yl)quinoline-5-sulfonamide]",9430,5900
"Cc1noc(C)c1-c1cc(S(=O)(=O)NC2CCCC2)c2cc(NC(C)C)c(=O)[nH]c2c1 [Compound 77, N-cyclopentyl-7-(3,5-dimethylisoxazol-4-yl)-3-(isopropylamino)-2-oxo-1,2-dihydroquinoline-5-sulfonamide]",896,610
"CCN[C@H]1CCC[C@H]1NS(=O)(=O)c1cc(-c2c(C)noc2C)cc2ncccc12 [Compound 53, 7-(3,5-dimethylisoxazol-4-yl)-N-((1R,2S)-2-(ethylamino)cyclopentyl)quinoline-5-sulfonamide]",> 20000,8640
"Cc1noc(C)c1-c1cc(S(=O)(=O)NC2CCCC2)c2cc(NC3CCN(C)CC3)c(=O)[nH]c2c1 [Compound 66, N-cyclopentyl-7-(3,5-dimethylisoxazol-4-yl)-3-((1-methylpiperidin-4-yl)amino)-2-oxo-1,2-dihydroquinoline-5-sulfonamide]",520,421
"Cc1noc(C)c1-c1cc(S(=O)(=O)N[C@H]2CCC[C@H]2O)c2cccnc2c1 [Compound 27, 7-(3,5-dimethylisoxazol-4-yl)-N-((1S,2R)-2-hydroxycyclopentyl)q uinoline-5-sulfonamide]",12500,6800
"Cc1noc(C)c1-c1cc(S(=O)(=O)NC2CCCC2)c2cc(N3CCN(C)CC3)c(=O)[nH]c2c1 [Compound 65, N-cyclopentyl-7-(3,5-dimethylisoxazol-4-yl)-3-(4-methylpiperazin-1-yl)-2-oxo-1,2-dihydroquinoline-5-sulfonamide]",981,546
